Test results taken from patent US9505717B2, “Acetic acid ester compound or salt thereof” (Taiho Pharmaceutical Co., Ltd., priority 2012, dated 2016).

test system: female SD rats; assay: Test Example 1: urethral baseline pressure (intraurethral pressure) in rats after oral administration; format: in vivo, rat; settings: 3 mg/kg oral, 11-week-old female SD rats, n=8, mean for 30 minutes after 8 hours from administration, Student's t-test vs distilled water group, FIG. 1
Description: The compounds of the present invention and comparative compounds were individually orally administered in an amount of 3 mg/kg to 11-week-old female SD rats (test substance-administration groups, n=8 for each group), and distilled water was orally administered as the control to 11-week-old female SD rats (solvent administration group, n=8). As the comparative compounds, 4-(1-methylpiperidyl) 2,2-diphenyl-2-propoxyacetate (Comparative Example 1), 4-(1-methylpiperidyl) 2,2-diphenyl-2-(propoxy-1,1,2,2,3,3,3-d7)acetate (Comparative Example 2), which is a deuterated compound of Comparative Example 1, and 4-piperidyl 2,2-diphenyl-2-propoxyacetate (Comparative Example 3), synthesized according to Patent Literatures 1 to 3, respectively, were used.
Seven and a half hours after administration, each rat was anesthetized by intraperitoneal administration of 1.2 g/kg of urethane. Thereafter, the ureters and the area between the urethra and the bladder were ligated, and a vesical fistula catheter and a catheter for measuring intraurethral pressure were inserted and indwelled in the bladder and the urethra. The catheter for measuring intraurethral pressure was inserted from the external urethral orifice. The other end of each catheter was connected to a corresponding pressure transducer branched into two directions via a corresponding three-way stopcock, and the remaining connecting portion of each three-way stopcock was connected to a corresponding syringe set in a continuous injection device. Intravesical pressure and intraurethral pressure were recorded via a polygraph connected with the pressure transducers. […] Physiological saline was injected into the urethra using the micro syringe pump connected to the urethra at 3 mL/hr, and the changes in intraurethral pressure associated with the rhythmic contraction were recorded.
The mean values of the urethral baseline pressure for the solvent administration group and the test substance-administration groups were calculated, and the results were indicated as mean±SE. […]

Compound	urethral baseline pressure (effect versus solvent administration group)
CCCOC(C(=O)OC1CCN(C)CC1)(c1ccccc1)c1ccccc1 [Comparative Example 1, 4-(1-methylpiperidyl) 2,2-diphenyl-2-propoxyacetate]	did not have a significant effect on urethral baseline pressure
[2H]C([2H])([2H])C([2H])([2H])C([2H])([2H])OC(C(=O)OC1CCN(C)CC1)(c1ccccc1)c1ccccc1 [Comparative Example 2, 4-(1-methylpiperidyl) 2,2-diphenyl-2-(propoxy-1,1,2,2,3,3,3-d7)acetate]	did not have a significant effect on urethral baseline pressure
CCCOC(C(=O)OC1CCNCC1)(c1ccccc1)c1ccccc1 [Comparative Example 3, 4-piperidyl 2,2-diphenyl-2-propoxyacetate]	did not have a significant effect on urethral baseline pressure
